Data reported in patent publication US12649750B2, “Macrocyclic compounds, compositions, and methods of using thereof” (Sionna Therapeutics Inc., priority 2022, dated 2026).

Legend:
NBD1 = target: T1, NBD1 (Homo sapiens, UniProt P13569); test: Aggregation analysis using differential static light scattering (DSLS), thermal stability of NBD1 (ΔTagg); type: binding; conditions: ΔTagg versus DMSO control, NBD1 0.2 mg/ml
T1 construct: Purified recombinant NBD1 was produced using previously described methods; made in house
Outline: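 Purified recombinant NBD1 at 0.2 mg/ml in Tris buffer pH7.6 with 2 mM ATP, 5 mM MgCl2, 2 mM DTT and 1% glycerol was mixed with DMSO-dissolved compounds under mineral oil. Plates were heated at 1° C. per minute to 70° C., light scattering imaged every 0.5° C.; Tagg from curve inflection, minus DMSO-control mean.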

CFTR = target: T2, CFTR (Homo sapiens, UniProt P13569, DEL508-508); test: TECC24 AUC fold over DMSO @10 μM, CFTR-mediated transepithelial chloride transport in CF-HBE cells; type: cell-based; conditions: test agent AUC divided by DMSO vehicle AUC, primary CF-HBE cells, ΔF508 homozygous donor, 48 hours incubation
T2 construct: Primary human bronchial epithelial cells from a ΔF508 homozygous CF donor; host or cells: primary human bronchial epithelial cells (CF-HBE), ΔF508 homozygous donor
Procedure: Example 387. TECC24 AUC Fold Over DMSO @10 μM
The effects of a test agent on CFTR-mediated transepithelial chloride transport is measured using TECC24 recording analysis. Test agents are solubilized in DMSO. Solubilized test agents are mixed with incubation medium containing DMEM/F12, Ultroser G (2%; Crescent Chemical, catalog #67042), Hyclone Fetal Clone II (2%; GE Healthcare, catalog #SH30066.02), bovine brain extract (0.25%; Lonza, catalog #CC-4098), insulin (2.5 μg/mL), IL-13 (10 ng/mL), hydrocortisone (20 nM), transferrin (2.5 μg/mL), triiodothyronine (500 nM), ethanolamine (250 nM), epinephrine (1.5 μM), phosphoethanolamine (250 nM), and retinoic acid (10 nM). Primary human bronchial epithelial cells from a ΔF508 homozygous CF donor (CF-HBE cells; from University of North Carolina Cystic Fibrosis Tissue Procurement Center), grown on Transwell HTS 24-well cell culture inserts (Costar, catalog #3378), are exposed to test agents or controls dissolved in incubation medium. The CF-HBE cells are cultured at 36.5° C. for 48 hours before TECC24 recordings are performed in the presence or absence of test agent, a positive control or vehicle (DMSO).
Following incubation, the transwell cell culture inserts containing the test agent or control-treated CF-HBE cells are loaded onto a TECC24 apparatus (TECC v7 or MTECC v2; EP Design) to record the transepithelial voltage (VT) and resistance (TEER) using 4 AgCl electrodes per well configured in current-clamp mode. The apical and basolateral bath solutions both contain (in mM) 140 NaCl, 5 KCl, 2 CaCl2, 1 MgCl2, 10 Hepes, and 10 glucose (adjusted to pH 7.4 with NaOH). To inhibit basal Na+ absorption, the ENaC inhibitor benzamil (10 μM) is added to the bath. Then, the adenylate cyclase activator, forskolin (10 μM), is added to the bath to activate CFTR. The forskolin-stimulated Cl— transport is halted by addition of CFTR inhibitor-172 (20 μM) to the bath at the end of the experiment to confirm specificity. VT and TEER recordings are digitally acquired at routine intervals using TECC or MTECC software (EP Design). VT and TEER are transformed into equivalent transepithelial Cl— current (IEQ), and the Area Under the Curve (AUC) of the IEQ time course between forskolin and CFTR inhibitor-172 addition is generated using Excel (Microsoft). Efficacy is expressed as the ratio of the test agent AUC divided by vehicle AUC. EC50s based on AUC are generated using the non-linear regression log(agonist) vs. response function in Prism software (Graphpad) with HillSlope fixed=1.
If a test agent increases the AUC of the forskolin-stimulated IEQ relative to vehicle in CF-HBE cells, and this increase is inhibited by CFTR inhibitor-172, then the test agent is considered a CFTR corrector. TECC assay efficacy is expressed as the ratio of the test agent AUC divided by DMSO vehicle AUC. As set forth in Table 2 below, a TECC value less than 12 is marked “A”; a value between 12-20 is marked “B”; a value between 20 and 80 is marked “C”. […]

T2 sequence (P13569 with tags, fused parts or gaps DEL508-508): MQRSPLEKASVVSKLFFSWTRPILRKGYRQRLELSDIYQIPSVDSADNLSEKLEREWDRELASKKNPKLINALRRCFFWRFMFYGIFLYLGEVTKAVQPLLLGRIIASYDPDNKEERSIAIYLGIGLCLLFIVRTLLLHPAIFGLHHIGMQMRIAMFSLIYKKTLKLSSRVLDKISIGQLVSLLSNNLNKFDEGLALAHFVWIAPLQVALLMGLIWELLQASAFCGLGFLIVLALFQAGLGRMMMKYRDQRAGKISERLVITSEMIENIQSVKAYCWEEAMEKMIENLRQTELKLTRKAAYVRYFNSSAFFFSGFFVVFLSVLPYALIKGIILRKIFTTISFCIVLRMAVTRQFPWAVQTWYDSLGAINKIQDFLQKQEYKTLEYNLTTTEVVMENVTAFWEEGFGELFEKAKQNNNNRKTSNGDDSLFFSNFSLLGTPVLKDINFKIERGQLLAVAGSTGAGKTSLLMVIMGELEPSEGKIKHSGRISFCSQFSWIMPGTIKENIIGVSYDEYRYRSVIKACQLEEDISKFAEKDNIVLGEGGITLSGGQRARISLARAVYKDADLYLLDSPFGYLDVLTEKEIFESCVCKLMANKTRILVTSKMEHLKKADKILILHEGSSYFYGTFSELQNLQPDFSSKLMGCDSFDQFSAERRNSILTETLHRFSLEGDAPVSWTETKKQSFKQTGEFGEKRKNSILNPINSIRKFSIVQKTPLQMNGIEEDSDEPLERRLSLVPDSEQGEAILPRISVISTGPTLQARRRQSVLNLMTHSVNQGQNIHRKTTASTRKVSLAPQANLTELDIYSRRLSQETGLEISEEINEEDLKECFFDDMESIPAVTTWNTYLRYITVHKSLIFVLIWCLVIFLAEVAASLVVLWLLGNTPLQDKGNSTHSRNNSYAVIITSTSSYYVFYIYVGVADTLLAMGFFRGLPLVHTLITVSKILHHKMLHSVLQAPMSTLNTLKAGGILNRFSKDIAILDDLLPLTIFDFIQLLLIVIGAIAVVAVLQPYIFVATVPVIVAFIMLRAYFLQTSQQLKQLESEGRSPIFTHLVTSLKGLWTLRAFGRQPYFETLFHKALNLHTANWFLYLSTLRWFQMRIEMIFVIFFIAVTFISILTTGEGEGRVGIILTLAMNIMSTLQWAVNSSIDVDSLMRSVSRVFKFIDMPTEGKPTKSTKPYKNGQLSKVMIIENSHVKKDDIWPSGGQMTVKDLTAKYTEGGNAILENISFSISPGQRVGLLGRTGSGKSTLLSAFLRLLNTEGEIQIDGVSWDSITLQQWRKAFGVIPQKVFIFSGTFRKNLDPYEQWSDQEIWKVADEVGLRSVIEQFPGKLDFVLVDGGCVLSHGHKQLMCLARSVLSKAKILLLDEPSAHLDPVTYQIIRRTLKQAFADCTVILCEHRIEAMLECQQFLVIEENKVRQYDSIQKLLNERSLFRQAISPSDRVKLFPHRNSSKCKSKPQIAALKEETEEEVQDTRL
T1 sequence (P13569 423-646 limits assumed): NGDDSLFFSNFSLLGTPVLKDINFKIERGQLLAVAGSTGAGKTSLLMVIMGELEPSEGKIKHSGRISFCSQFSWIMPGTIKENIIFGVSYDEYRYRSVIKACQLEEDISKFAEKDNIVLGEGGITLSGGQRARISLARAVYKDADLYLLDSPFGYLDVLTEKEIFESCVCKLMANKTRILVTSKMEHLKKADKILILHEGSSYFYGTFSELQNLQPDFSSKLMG

Compound | DSLS 3D (100 μM ΔT) (NBD1) | TECC (AUC, 10 μM) (CFTR)
Cn1nc2nc1-c1cc(ccc1F)Oc1c(F)cc3[nH]ccc3c1CCS(=O)(=O)CC(C)(C)CCCC2(C)c1cccc(/C=C2\NC(=O)NC2=O)c1 (racemic) [Compound 174, (5Z)-5-[[3-(22,28-Difluoro-3,6,10,10-tetramethyl-12,12-dioxo-24-oxa-12λ6-thia-3,4,19,30-tetrazapentacyclo[23.3.1.12,5.015,23.016,20]-triaconta-1(29),2(30),4,15,17,20,22,25,27-nonaen-6-yl)phenyl]methylene]imidazolidine-2,4-dione] | C (a value greater than 10 °C and less than or equal to 25 °C is marked “C”) | A (a TECC value less than 12 is marked “A”)
Cn1nc2nc1-c1cc(ccn1)Oc1c(F)cc3[nH]ccc3c1CCS(=O)(=O)CC(C)(C)CCC[C@]2(C)c1cccc(CCC(=O)O)c1 (racemic) [Compound 228, 3-[3-[rac-(6R)-22-fluoro-3,6,10,10-tetramethyl-12,12-dioxo-24-oxa-12λ6-thia-3,4,19,28,30-pentazapentacyclo[23.3.1.12,5.015,23.016,20]triaconta-1(29),2(30),4,15,17,20,22,25,27-nonaen-6-yl]phenyl]propanoic acid] | C (a value greater than 10 °C and less than or equal to 25 °C is marked “C”) | C (a value between 20 and 80 is marked “C”)
C[C@@H](Cc1cccc([C@@]2(C)CCCC(C)(C)CS(=O)(=O)CCc3c(c(F)c(F)c4[nH]ccc34)Sc3ccc(F)c(c3)-c3nc2nn3C)c1)C(=O)O (racemic) [Compound 259, (2S)-2-methyl-3-[3-[(6R)-21,22,28-trifluoro-3,6,10,10-tetramethyl-12,12-dioxo-12λ6,24-dithia-3,4,19,30-tetrazapentacyclo[23.3.1.12,5.015,23.016,20]triaconta-1(29),2(30),4,15,17,20,22,25,27-nonaen-6-yl]phenyl]propanoic Acid] | C (a value greater than 10 °C and less than or equal to 25 °C is marked “C”) | C (a value between 20 and 80 is marked “C”)
Cn1nc2nc1-c1cc(ccn1)Cc1c(F)cc3[nH]ccc3c1CCS(=O)(=O)CC(C)(C)CCC[C@]2(C)c1cccc(CC(C)(C)C(=O)O)c1 (racemic) [Compound 295, 2,2-dimethyl-3-[3-[rac-(6R)-22-fluoro-3,6,10,10-tetramethyl-12,12-dioxo-12λ6-thia-3,4,19,28,30-pentazapentacyclo[23.3.1.12,5.015,23.016,20]triaconta-1(29),2(30),4,15,17,20,22,25,27-nonaen-6-yl]phenyl]propanoic Acid] | B (a value above 5 °C and less than or equal to 10 °C is marked “B”) | B (a value between 12-20 is marked “B”)
[2H]C([2H])([2H])n1nc2nc1-c1cc(ccc1F)Oc1c(F)cc3[nH]ccc3c1CCS(=O)(=O)CC(C)(C)CCCC2(C)c1cccc(OCC(=O)O)c1 (single isomer, unassigned) [Compound 1A, 2-[3-[22,28-Difluoro-6,10,10-trimethyl-12,12-dioxo-3-(trideuteriomethyl)-24-oxa-12λ^6-thia-3,4,19,30-tetrazapentacyclo[23.3.1.1^2,5.0^15,23.0^16,20]triaconta-1(29),2(30),4,15,17,20,22,25,27-nonaen-6-yl]phenoxy]acetic Acid] | C (a value greater than 10 °C and less than or equal to 25 °C is marked “C”) | C (a value between 20 and 80 is marked “C”)
[2H]C([2H])([2H])n1nc2nc1-c1cc(ccc1F)Oc1c(F)cc3[nH]ccc3c1CCS(=O)(=O)CC(C)(C)CCCC2(C)c1cccc(OCC(=O)O)c1 (single isomer, unassigned) [Compound 1B, 2-[3-[22,28-Difluoro-6,10,10-trimethyl-12,12-dioxo-3-(trideuteriomethyl)-24-oxa-12λ^6-thia-3,4,19,30-tetrazapentacyclo[23.3.1.1^2,5.0^15,23.0^16,20]triaconta-1(29),2(30),4,15,17,20,22,25,27-nonaen-6-yl]phenoxy]acetic Acid] | A (an ΔTagg value less than or equal to 5 °C is marked “A”) | A (a TECC value less than 12 is marked “A”)
Cn1nc2nc1-c1cc(ccc1F)Oc1c(F)cc3[nH]ccc3c1CCS(=O)(=O)CCC(F)(F)CCC2(C)c1cccc(CCC(=O)O)c1 (single isomer, unassigned) [Compound 2A, 3-[3-(9,9,22,28-Tetrafluoro-3,6-dimethyl-12,12-dioxo-24-oxa-12λ^6-thia-3,4,19,30-tetrazapentacyclo[23.3.1.1^2,5.0^15,23.0^16,20]triaconta-1(29),2(30),4,15,17,20,22,25,27-nonaen-6-yl)phenyl]propanoic Acid] | B (a value above 5 °C and less than or equal to 10 °C is marked “B”) | B (a value between 12-20 is marked “B”)
Cn1nc2nc1-c1cc(ccc1F)Oc1c(F)cc3[nH]ccc3c1CCS(=O)(=O)CCC(F)(F)CCC2(C)c1cccc(CCC(=O)O)c1 (single isomer, unassigned) [Compound 2B, 3-[3-(9,9,22,28-Tetrafluoro-3,6-dimethyl-12,12-dioxo-24-oxa-12λ^6-thia-3,4,19,30-tetrazapentacyclo[23.3.1.1^2,5.0^15,23.0^16,20]triaconta-1(29),2(30),4,15,17,20,22,25,27-nonaen-6-yl)phenyl]propanoic Acid] | A (an ΔTagg value less than or equal to 5 °C is marked “A”) | A (a TECC value less than 12 is marked “A”)
Cn1nc2nc1-c1cc(ccc1F)Oc1c(F)cc3[nH]ccc3c1CCS(=O)(=O)CC(C)(C)CCCC2(C)c1cccc(CCO)c1 (single isomer, unassigned) [Compound 4A, 2-[3-(22,28-Difluoro-3,6,10,10-tetramethyl-12,12-dioxo-24-oxa-12λ^6-thia-3,4,19,30-tetrazapentacyclo[23.3.1.1^2,5.0^15,23.0^16,20]triaconta-1(29),2(30),4,15,17,20,22,25,27-nonaen-6-yl)phenyl]ethanol] | C (a value greater than 10 °C and less than or equal to 25 °C is marked “C”) | C (a value between 20 and 80 is marked “C”)
Cn1nc2nc1-c1cc(ccc1F)Oc1c(F)cc3[nH]ccc3c1CCS(=O)(=O)CC(C)(C)CCCC2(C)c1cccc(CCO)c1 (single isomer, unassigned) [Compound 4B, 2-[3-(22,28-Difluoro-3,6,10,10-tetramethyl-12,12-dioxo-24-oxa-12λ^6-thia-3,4,19,30-tetrazapentacyclo[23.3.1.1^2,5.0^15,23.0^16,20]triaconta-1(29),2(30),4,15,17,20,22,25,27-nonaen-6-yl)phenyl]ethanol] | A (an ΔTagg value less than or equal to 5 °C is marked “A”) | A (a TECC value less than 12 is marked “A”)
Cn1nc2nc1-c1cc(ccc1F)Oc1c(F)cc3[nH]ccc3c1CCS(=O)(=O)CC(C)(C)OCCC2(C)c1cccc(CC(=O)O)c1 (single isomer, unassigned) [Compound 5A, 2-[3-(22,28-Difluoro-3,6,10,10-tetramethyl-12,12-dioxo-9,24-dioxa-12λ^6-thia-3,4,19,30-tetrazapentacyclo[23.3.1.12,5.015,23.016,20]triaconta-1(29),2(30),4,15,17,20,22,25,27-nonaen-6-yl)phenyl]acetic Acid] | C (a value greater than 10 °C and less than or equal to 25 °C is marked “C”) | B (a value between 12-20 is marked “B”)
